# Results from patent US12186400B2, “Micromolecular compound specifically degrading tau protein, and application thereof” (Shanghai Qiangrui Biotech Co., Ltd., priority 2018, dated 2025).
# Tests used:
# tau protein [1] = target: T1, tau protein (Homo sapiens, UniProt P10636); test: Fluorescence photograph of total tau protein content in HEK293 tau cells; type: cell-based; settings: different concentrations
# T1 construct: HEK293 tau cells (stably expressing wild type full length tau protein); expressed in transfected cells
# tau protein [2] = target: T1, tau protein; test: Immunoblot of total tau protein (tau5 antibody) in HEK293 tau cells after 24 h treatment; type: cell-based; settings: HEK293 tau cells stably expressing wild type full length tau, effect at 1 μM, 10 μM and 20 μM (tested 0, 0.01, 0.1, 1, 10, 20 μM)
# Procedure: HEK293 tau cells (stably expressing wild type full length tau protein) is subjected to cell culture and pharmaceutical treatment, and after the HEK293 tau cells were cultured in DMEM medium for 24 hours, the micromolecular compounds prepared in the above example with various concentrations (0 μM, 0.01 μM, 0.1 μM, 1 μM, 10 μM, 20 μM) were added, the cells were further cultured for 24 hours. The cells were lysed with RIPA liquid and the cell extraction solution was collected, the proteins in the cell extraction solution were separated with 10% polyacrylamide gel electrophoresis (PAGE), and subsequently immunoblotted with anti-total tau protein antibody (tau5), and the tau protein content was quantitatively analyzed. The detailed operation procedures for preparation of samples, measurement of protein content in the samples, and the immunoblotting process were performed with reference to the following content.
# (1) The growth condition and density of cells in the cell culture plates were observed under a microscope;
# (2) PBS and cell culture plate were precooled on ice, a mixed liquor consisting of 1× buffer solution+PMSF (1:100)+protease inhibitor cocktail (1:1000) was prepared; 80 μl of the mixed liquor was added into each pore of the 6-well plate, and 150 μl of the mixed liquor was added into a culture dish with a diameter of 6 cm; […]
# T1 sequence (P10636 1-441 isoform P10636-8): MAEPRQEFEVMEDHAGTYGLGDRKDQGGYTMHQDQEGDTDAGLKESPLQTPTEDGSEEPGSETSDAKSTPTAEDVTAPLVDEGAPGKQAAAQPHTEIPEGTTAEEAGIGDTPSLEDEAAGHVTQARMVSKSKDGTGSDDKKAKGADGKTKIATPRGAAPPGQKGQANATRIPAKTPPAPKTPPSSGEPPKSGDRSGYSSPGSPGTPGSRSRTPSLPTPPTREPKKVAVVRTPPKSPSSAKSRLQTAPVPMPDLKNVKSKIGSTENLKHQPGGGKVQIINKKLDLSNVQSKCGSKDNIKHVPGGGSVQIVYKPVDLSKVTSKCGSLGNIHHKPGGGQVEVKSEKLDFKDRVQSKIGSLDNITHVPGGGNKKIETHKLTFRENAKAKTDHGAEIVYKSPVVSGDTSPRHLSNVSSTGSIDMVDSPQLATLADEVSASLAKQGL
structure (smiles),measurement,setting,value
CC(=O)N1CCCN(c2nc(NCCc3cccs3)nc(N(C)CC(=O)NCCOCCOCCOCC(=O)N[C@H](C(=O)N3C[C@H](O)C[C@H]3C(=O)NCc3ccc(-c4scnc4C)cc3)C(C)(C)C)n2)CC1 [Compound 4],"total tau protein content in the HEK293 tau cells (fluorescence photograph, FIG. 4)",tau protein [1],reducing total tau protein content in the HEK293 tau cells
same,"content of tau protein in cells (immunoblot, quantitative analysis, FIG. 2 and FIG. 3)",tau protein [2],dose-dependently reduce the content of tau protein in cells
